The values below come from patent publication US9834514B2, “Antibiotic sensitivity-restoring and photosensitive agents” (New Mexico Tech Research Foundation, priority 2015, dated 2017).

Converted amounts (≈) assume the structure as drawn. Read-outs that look alike come from different tables or passages of the source. Some results are limits rather than exact numbers.

Test [1] concerns VRE. The test is described as follows: MIC against VRE. Format: cell-based, Enterococcus faecalis. The procedure: In a 12×75 mm borosilicate glass culture tube, 1 mL of cell suspension was added. Then, compound 7 was added to the cells, and the samples were mixed using a vortex mixer. […] The samples were incubated overnight at 37° C. on a rotary shaking incubator at 100 rpm.

For test [2], the system named is MRSA. The test is described as follows: MIC of a compound of the invention and ampicillin, alone and in combination. The test is classed as cell-based. The source says:
Compounds of the invention can increase the potency of antibiotics. […] The ability of compounds of the invention to synergize with structurally and mechanistically unrelated antibiotics can be a result of the inhibition of bacterial efflux.

Test [3] deals with MRSA. As to the kind of experiment: Minimum bactericidal concentration (MBC) with and without white light. Format: cell-based, S. aureus. The note with it: Staphylococcus aureus, light or radiation study. The procedure:
The bacterial media was inoculated with bacteria and incubated overnight. The bacterial cultures were diluted to 5×10^8 CFU/mL using a McFarland latex turbidity standard (0.5). Compound 1 was diluted with sterile DMSO, which was added to the cell suspension in glass culture tubes. The cells were then incubated for 30 minutes at 37° C. on a rotary shaking incubator at 150 rpm. 500 μL of the treated cell suspension was added to a well on a sterile ceramic drop plate. Non-coherent white light from a Lumacare™ LC-122 unit was used to irradiate the samples. The end of the light probe was placed 3 cm above the sample well, perpendicular to the surface of the sample, and light was applied for 2 minutes (15 seconds light, 15 seconds dark). 200 μL of the irradiated sample was transferred to a 96-well plastic microtiter plate and five ten-fold dilutions were made in the media. 10 μL of each dilution was dripped onto an agar media plate and was allowed to streak down the plate by tilting the plate down. The agar plates were incubated at 37° C. overnight and colony counts were performed to calculate the CFU/mL.
TABLE 14 details the MBC values of compounds 1-6 against MRSA with and without irradiation with white light. Irradiation involved treatment with a LumaCare™ light source at 3 cm from media for 1 min.

The test system of test [4] is MES-SA/Dx5 (human uterine sarcoma grown in presence of doxorubicin). The test is described as follows: Light-activated killing of cell lines (IC50 with/without light). Format: cell-based. The conditions noted are these: Homo sapiens. The procedure:
(§1) TABLE 15 depicts the IC50 of compounds in the presence or absence of light for human cell lines. The cell lines used were HeLa (human cervical adenocarcinoma), U-87 MG (human brain gliobastoma), MES-SA (human uterine sarcoma), MES-SA/D×5 (human uterine sarcoma grown in presence of doxorubicin), NCI-H441 (human lung papillary adenocarcinoma), A549 (human lung carcinoma), WI-38 (human embryonic lung normal), MCF7 (human breast adenocarcinoma), SW1088 (human brain astrocytoma), B16F10 (mouse skin melanoma), NIH-3T3 (mouse fibroblast), and Jurkat (human lymphoblastoma). “1-Sol” in TABLE 15 was generated by dissolving compound 1 and potassium hydroxide at a 1:1 ratio in a DMSO/water solution. The cells were irradiated with continuous white light using a LumaCare™ light source for 2 minutes at a distance of 6.5 cm from the cells.

Test [5] relates to U-87 MG (human brain gliobastoma). Described as above. The test is classed as cell-based. The procedure: as §1
Test [6] in a line: MIC against MRSA isolates. The test is classed as cell-based, S. aureus. The note with it: Staphylococcus aureus. The procedure: The MICs of S. aureus ATCC 33591, BAA-44, BAA-1707, BAA-1717, BAA-1720, BAA-1747, BAA-1754, BAA-1761, BAA-1763, BAA-1764, and BAA-1766 were measured using a cell concentration of about 5×10^5 colony forming units (CFU)/mL. In a 96-well microtiter plate, two-fold dilutions were made of each drug (starting with 100 μM) in 100 μL of a cell suspension in trypticase soy broth (TSB). The samples were incubated overnight at 37° C. on a rotary shaking incubator set at 100 revolutions per minute (rpm) and were visually inspected for turbidity. A 20% well-volume of 3-(4,5-dimethylthiazol-2-yl)-2,5-diphenyltetrazolium bromide (MTT reagent, 5 mg/mL) was added, and the samples were incubated for about 20 minutes. The MICs were determined as the lowest concentration at which full visual inhibition was observed by the unaided eye.

In test [7] the test system is S. aureus (ATCC 29213). The test is described as follows: MIC against drug sensitive S. aureus. The note with it: Staphylococcus aureus. Format: cell-based.
The test system of test [8] is S. aureus (ATCC 29213). As to the kind of experiment: microbe, parasite or virus in culture. Format: cell-based. The conditions noted are these: for MIC: Staphylococcus aureus. The procedure:
Each mixture was incubated at 37° C. on a rotary shaking incubator for about 16 hours. MTT was then added to assess the viability of the cells (at 10% well volume). […] The cells were then streaked onto a TSA plate and incubated overnight at 37° C. These steps were repeated to reach a total of 30 exposures.

Setting [9] is: Enterococcus, TABLE 23, read-out: VRE MIC.
[10] abbreviates: ATCC29213, ATCC 29213, read-out: S. aureus MIC.
The mark [11] stands for this setting: ATCC29213, read-out: Final MIC Apr. 16, 2015.
Where [12] appears, read: ATCC29213, read-out: Initial MIC Mar. 10, 2015.
Setting [13] is: antibiotics, MRSA isolate ATCC 33591.
Where [14] appears, read: antibiotics, MRSA isolate ATCC BAA-44.
Where [15] appears, read: antibiotics, MRSA isolate ATCC BAA-1707.
The mark [16] stands for this setting: antibiotics, MRSA isolate ATCC BAA-1717.
Where [17] appears, read: antibiotics, MRSA isolate ATCC BAA-1720.
Where [18] appears, read: antibiotics, MRSA isolate ATCC BAA-1747.
Where [19] appears, read: antibiotics, MRSA isolate ATCC BAA-1754.
Where [20] appears, read: antibiotics, MRSA isolate ATCC BAA-1761.
Where [21] appears, read: antibiotics, MRSA isolate ATCC BAA-1763.
Where [22] appears, read: antibiotics, MRSA isolate ATCC BAA-1764.
Where [23] appears, read: antibiotics, MRSA isolate ATCC BAA-1766.
Where [24] appears, read: read-out: MRSA MIC, MRSA (ATCC BAA-44), TABLE 21.

On to `CC1(C)S[C@@H]2[C@H](NC(=O)[C@H](N)c3ccccc3)C(=O)N2[C@H]1C(=O)O` [Ampicilin, ampicillin], for which the S/R entry in test [1] (TABLE 24) was “S”. For the same molecule, the MIC in test [1] (common antibiotics, TABLE 24) was in the range of 2 to 4 µg/mL. Further, in test [2] (combination versus alone), the “fold decrease in concentration in combination” value is given as 8 fold. Moreover, the “concentration needed for full killing in combination” value in test [2] (compound used in combination with ampicillin) is recorded as “about 572 μM”. The “mean inhibitory concentration (MIC), alone” value in test [2] (single agent) is reported as “about 4579 μM”.

Take `Fc1ccc(/C=C/c2[nH]c3ccccc3c2/C=C/c2ccc(F)cc2)cc1` [Compound 4]: the MBC turned out to be 0.5 µM (≈ 0.179 µg/mL) in test [3] (1 min, LumaCare light source at 3 cm from media for 1 min, read-out: MBC with irradiation) and 100 µM (≈ 35.7 µg/mL) in test [3] (no irradiation, read-out: MBC in the dark). Moreover, the IC50 in test [4] (MES-SA/Dx5, 2 min, MES-SA/Dx5 (no doxorubicin), white light 2 minutes, read-out: Compound + light IC50) turned out to be 1.31 ± 0.51 µM; in test [4] (MES-SA/Dx5, 2 min, MES-SA/Dx5 + doxorubicin, white light 2 minutes, read-out: Compound + light IC50), 0.67 ± 0.01 µM; in test [4] (MES-SA/Dx5, MES-SA/Dx5 (no doxorubicin), no light, read-out: Compound IC50), 57.2 ± 10.3 µM; in test [4] (MES-SA/Dx5, MES-SA/Dx5 + doxorubicin, no light, read-out: Compound IC50), 40.9 ± 1.36 µM; in test [5] (2 min, white light 2 minutes, read-out: Compound + light IC50), 1.01 ± 0.16 µM; in test [5] (no light, read-out: Compound IC50), 42.6 ± 5.53 µM.

As to `CCn1cc(C(=O)O)c(=O)c2cc(F)c(N3CCNCC3)cc21` [Norfloxacin, reference compound], the MIC was 100 µg/mL (≈ 313 µM) in test [6] (MRSA (ATCC BAA-44), TABLE 21, read-out: MRSA MIC); 25 µg/mL (≈ 78.3 µM) in test [6] (antibiotics, MRSA isolate ATCC 33591, read-out: MIC); 100 µg/mL (≈ 313 µM) in test [6] (antibiotics, MRSA isolate ATCC BAA-44, read-out: MIC); less than 3.1 µg/mL in test [6] (antibiotics, MRSA isolate ATCC BAA-1707, read-out: MIC); more than 100 µg/mL in test [6] (antibiotics, MRSA isolate ATCC BAA-1720, read-out: MIC); 6.3 µg/mL (≈ 19.7 µM) in test [6] (antibiotics, MRSA isolate ATCC BAA-1747, read-out: MIC). The MIC was less than 3.1 µg/mL in test [6] (antibiotics, MRSA isolate ATCC BAA-1754, read-out: MIC); more than 100 µg/mL in test [6] (antibiotics, MRSA isolate ATCC BAA-1761, read-out: MIC); more than 100 µg/mL in test [6] (antibiotics, MRSA isolate ATCC BAA-1763, read-out: MIC); less than 3.1 µg/mL in test [6] (antibiotics, MRSA isolate ATCC BAA-1764, read-out: MIC); less than 3.1 µg/mL in test [6] (antibiotics, MRSA isolate ATCC BAA-1766, read-out: MIC); 2.5 µg/mL (≈ 7.83 µM) in test [1] (setting [9]). Also, the MIC in test [1] (Enterococcus, common antibiotics, TABLE 24, read-out: MIC) was 1 µg/mL (≈ 3.13 µM); in test [7] (setting [10]) it was 1.25 to 2.5 µg/mL (≈ 3.91 to 7.83 µM); in test [8] (setting [11]) it was more than 16 µM; in test [8] (setting [12]), 2 µM (≈ 0.639 µg/mL). The S/R entry in test [1] (TABLE 24) was “S”. The “Resistance Evolved” value in test [8] is recorded as “Yes”.

As for `Cc1onc(-c2ccccc2)c1C(=O)N[C@@H]1C(=O)N2[C@@H]1SC(C)(C)[C@@H]2C(=O)O` [Oxacillin, reference compound], the MIC is more than 100 µg/mL in test [6] (setting [13]); 400 µg/mL (≈ 996 µM) in test [6] (setting [14]); less than 3.1 µg/mL in test [6] (setting [15]); 200 µg/mL (≈ 498 µM) in test [6] (setting [16]); more than 100 µg/mL in test [6] (setting [17]); 6.3 µg/mL (≈ 15.7 µM) in test [6] (setting [18]). In addition, the MIC is 50 µg/mL (≈ 125 µM) in test [6] (setting [19]); 6.3 µg/mL (≈ 15.7 µM) in test [6] (setting [20]); 50 µg/mL (≈ 125 µM) in test [6] (setting [21]); 25 µg/mL (≈ 62.3 µM) in test [6] (setting [22]); less than 6.3 µg/mL in test [6] (setting [23]); 400 µg/mL (≈ 996 µM) in test [6] (setting [24]). The MIC was 20 to 40 µg/mL (≈ 49.8 to 99.6 µM) in test [1] (setting [9]), 0.5 µg/mL (≈ 1.25 µM) in test [7] (setting [10]), more than 8 µM in test [8] (setting [11]) and 0.25 µM (≈ 0.1 µg/mL) in test [8] (setting [12]). The “Resistance Evolved” value in test [8] is “Yes”.

As for `CN[C@H](CC(C)C)C(=O)N[C@H]1C(=O)N[C@@H](CC(N)=O)C(=O)N[C@H]2C(=O)N[C@H]3C(=O)N[C@H](C(=O)N[C@H](C(=O)O)c4cc(O)cc(O)c4-c4cc3ccc4O)[C@H](O)c3ccc(c(Cl)c3)Oc3cc2cc(c3O[C@@H]2O[C@H](CO)[C@@H](O)[C@H](O)[C@H]2O[C@H]2C[C@](C)(N)[C@H](O)[C@H](C)O2)Oc2ccc(cc2Cl)[C@H]1O` [Vancomycin, reference compound], the MIC in test [6] (setting [13]) is less than 3.1 µg/mL; in test [6] (setting [14]), 3.1 µg/mL (≈ 2.14 µM); in test [6] (setting [15]), less than 3.1 µg/mL; in test [6] (setting [16]), less than 1.6 µg/mL; in test [6] (setting [17]) it was less than 3.1 µg/mL; in test [6] (setting [18]), less than 3.1 µg/mL. The MIC in test [6] (setting [19]) was less than 3.1 µg/mL; in test [6] (setting [20]), less than 3.1 µg/mL; in test [6] (setting [21]), less than 3.1 µg/mL; in test [6] (setting [22]) it was less than 3.1 µg/mL; in test [6] (setting [23]), less than 3.1 µg/mL; in test [6] (setting [24]), 3.12 µg/mL (≈ 2.15 µM). Further, the MIC was 64 µg/mL (≈ 44.2 µM) in test [1] (Enterococcus); more than 40 µg/mL in test [1] (Enterococcus, read-out: VRE MIC); 2 µg/mL (≈ 1.38 µM) in test [7] (ATCC29213, read-out: S. aureus MIC). Further, the S/R result in test [1] (TABLE 24) is listed as “R”.

In general, MBC refers to the lowest tested concentration that kills the bacteria rather than only halting them. The term IC50 denotes the concentration needed to halve the response being measured.
